Paper PMC4315410, “A New PAMPA Model Proposed on the Basis of a Synthetic Phospholipid Membrane” (PLoS ONE, 2015)
Where a name gives a salt, the structure may show the parent alone.

Assays:
[1] = set-up: method as in Chinese Pharmacopoeia, 2005 edition and references 15, 27, 38; details: ref Chinese Pharmacopoeia, 2005 edition and references 15, 27, 38; cited from earlier work
[2] = PAMPA with synthetic phospholipid membrane, decyl chain (C10); format: in vitro ADME; details: for Papp at 16 h: PAMPA, read-out: P e
Method: (§1) In PAMPA, a “sandwich” structure was formed by a 96-well microtiter plate and a 96-well filter plate from Millipore (IPVH, 125 μm thick filter, 0.45 μm pore), then wetted with a 4 μl 2% w/v phospholipid compound solution in n-dodecane [27].
(§2) The stock solutions of the drug samples were prepared at 10 mM concentrations in DMSO and stored at 0°C before use. Before being added to a 96-well filter plate, the stock solution was diluted first with buffer to achieve a final sample concentration of 10∼50 μM and to reduce the DMSO concentration below 1% (v/v).
(§3) The PAMPA plate was filled with a 300 μl diluted drug solution to prepare the “donor” wells, and the 96-well filter plate containing a synthetic phospholipid membrane was then placed on the donor wells. The “acceptor” wells were filled with 200 μl of buffer solution and placed on top of the “sandwich”, and the PAMPA instruments were incubated at 25°C in a sealed and saturated humidity container for a specified time. After reaching the permeation time, the PAMPA plate sandwich was separated, and the amount of drugs in both the donor and acceptor compartments were measured by comparing the experimental spectra with the UV spectrum (220∼400 nm) obtained from reference standards.
(§4) The factor S was the fraction of samples remaining in the donor and the acceptor wells at time t.
(§5) In the incubation time assays, the pH was 7.4 in both the donor and acceptor wells. In the pH-gradient assays, the pH of the drug solutions was varied using NaOH-treated universal buffer (pION Inc.) in the donor wells, and the pH in the acceptor solution was pH 7.4 [15]. In addition, the incubation time in the pH-gradient test assays was 16 h.

[3] = set-up: method as in PMID 11576780, PMID 9691477; details: cited from earlier work
[4] = PAMPA with synthetic phospholipid membrane, octyl chain (C8); format: in vitro ADME; details: for Papp at 16 h: PAMPA, read-out: P e
Method: as §1, §2, §3, §4, §5

[5] = PAMPA with synthetic phospholipid membrane, lauryl chain (C12); format: in vitro ADME; details: for Papp at 16 h: PAMPA, read-out: P e
Method: as §1, §2, §3, §4, §5

[6] = set-up: method as in DrugBank database; details: ref DrugBank database; cited from earlier work
[7] = C10, donor pH 4.6, acceptor pH 7.4, 16 h
[8] = C10, donor pH 4.98, acceptor pH 7.4, 16 h
[9] = C10, donor pH 6.57, acceptor pH 7.4, 16 h
[10] = C10, donor pH 8.2, acceptor pH 7.4, 16 h
[11] = C10, donor pH 9.32, acceptor pH 7.4, 16 h
[12] = pH 7.4, C10 membrane, incubation time 16 h, pH 7.4 donor and acceptor, 25°C
[13] = C8, donor pH 4.6, acceptor pH 7.4, 16 h
[14] = C8, donor pH 4.98, acceptor pH 7.4, 16 h
[15] = C8, donor pH 6.57, acceptor pH 7.4, 16 h
[16] = C8, donor pH 8.2, acceptor pH 7.4, 16 h
[17] = C8, donor pH 9.32, acceptor pH 7.4, 16 h
[18] = pH 7.4, C8 membrane, incubation time 16 h, pH 7.4 donor and acceptor, 25°C
[19] = C12, donor pH 4.6, acceptor pH 7.4, 16 h
[20] = C12, donor pH 4.98, acceptor pH 7.4, 16 h
[21] = C12, donor pH 6.57, acceptor pH 7.4, 16 h
[22] = C12, donor pH 8.2, acceptor pH 7.4, 16 h
[23] = C12, donor pH 9.32, acceptor pH 7.4, 16 h
[24] = pH 7.4, C12 membrane, incubation time 16 h, pH 7.4 donor and acceptor, 25°C

Row | SMILES | P e [2, 7] | P e [2, 8] | P e [2, 9] | P e [2, 10] | P e [2, 11] | Papp at 16 h [2, 12] | P e [4, 15] | P e [4, 16] | P e [4, 17] | Papp at 16 h [4, 18] | P e [5, 19] | P e [5, 20] | P e [5, 21] | P e [5, 22] | P e [5, 23] | Papp at 16 h [5, 24] | Papp at 16 h [4, 13] | %FA (human fraction absorbed) [3] | P e [4, 14] | Water solubility [6] | further results
1 | CC1(C)S[C@@H]2[C@H](NC(=O)[C@H](N)c3ccc(O)cc3)C(=O)N2[C@H]1C(=O)O [Amoxicillin] | 1.9 ×10^–7 cm/s | 2.1 ×10^–7 cm/s | 2.5 ×10^–7 cm/s | 2.3 ×10^–7 cm/s | 2.2 ×10^–7 cm/s | 53 ± 3 nm/s | 2.6 ×10^–7 cm/s | 2.4 ×10^–7 cm/s | 2.2 ×10^–7 cm/s | 46 ± 4 nm/s | 1.9 ×10^–7 cm/s | 2.1 ×10^–7 cm/s | 2.6 ×10^–7 cm/s | 2.3 ×10^–7 cm/s | 2.0 ×10^–7 cm/s | 57 ± 4 nm/s |  | 93% | 2.1 ×10^–7 cm/s |  | pKa (second value listed) [1]: 7.31; pKa (third value listed) [1]: 9.53; P e [4, 13]: 1.9 ×10^–7 cm/s
2 | O=C(N[C@H](CO)[C@H](O)c1ccc([N+](=O)[O-])cc1)C(Cl)Cl [Chloroamphenicol] |  |  |  |  | 0.5 ×10^–6 cm/s | 98 ± 3 nm/s |  |  |  | 88 ± 2 nm/s |  | 4.2 ×10^–6 cm/s |  | 0.7 ×10^–6 cm/s | 0.5 ×10^–6 cm/s | 146 ± 3 nm/s | 43 nm/s |  | 4.2 ×10^–6 cm/s |  | pKa (first value listed) [1]: 4.3; Papp at 16 h [2, 7]: 42 nm/s; Papp at 16 h [2, 8]: 40 nm/s; Papp at 16 h [2, 9]: 10 nm/s; Papp at 16 h [2, 10]: 7 nm/s; Papp at 16 h [4, 15]: 17 nm/s; Papp at 16 h [4, 16]: 6 nm/s; Papp at 16 h [4, 17]: 5 nm/s; Papp at 16 h [5, 19]: 44 nm/s; Papp at 16 h [5, 21]: 15 nm/s
3 | CN/C(=N/CCSCc1nc[nH]c1C)NC#N [Cimetidine] | 1.8 ×10^–6 cm/s |  | 2.6 ×10^–6 cm/s |  |  | 28 ± 3 nm/s | 2.6 ×10^–6 cm/s | 3.2 ×10^–6 cm/s |  | 26 ± 4 nm/s | 1.8 ×10^–6 cm/s | 1.9 ×10^–6 cm/s |  | 3.2 ×10^–6 cm/s | 3.4 ×10^–6 cm/s | 32 ± 3 nm/s | 18 nm/s | 85% |  | 9380 mg | pKa (first value listed) [1]: 7.23; Papp at 16 h [2, 8]: 19 nm/s; Papp at 16 h [2, 10]: 31 nm/s; Papp at 16 h [2, 11]: 34 nm/s; Papp at 16 h [4, 14]: 16 nm/s; Papp at 16 h [4, 17]: 37 nm/s; Papp at 16 h [5, 21]: 27 nm/s
4 | NC(N)=Nc1nc(CSCCC(N)=NS(N)(=O)=O)cs1 [Famotidine] |  | 2.2 ×10^–6 cm/s |  |  |  | 28 ± 2 nm/s |  |  |  | 27 ± 3 nm/s | 1.2 ×10^–6 cm/s | 1.2 ×10^–6 cm/s |  |  |  | 32 ± 4 nm/s | 11 nm/s | 40% |  | 1000 mg | pKa (first value listed) [1]: 7.24; pKa (second value listed) [1]: 11.19; Papp at 16 h [2, 7]: 12 nm/s; Papp at 16 h [2, 9]: 57 nm/s; Papp at 16 h [2, 11]: 55 nm/s; Papp at 16 h [4, 14]: 22 nm/s; Papp at 16 h [4, 15]: 50 nm/s; Papp at 16 h [4, 17]: 51 nm/s; Papp at 16 h [5, 21]: 60 nm/s; Papp at 16 h [5, 23]: 61 nm/s
5 | COCCc1ccc(OCC(O)CNC(C)C)cc1 (stereo not drawn) [Metoprolol Tartrate] | 1.4 ×10^–5 cm/s | 2.5 ×10^–5 cm/s | 5.3 ×10^–5 cm/s | 7.5 ×10^–5 cm/s | 9.3 ×10^–5 cm/s | 103 ± 5 nm/s | 5.1 ×10^–5 cm/s | 8.0 ×10^–5 cm/s | 8.9 ×10^–5 cm/s | 92 ± 6 nm/s | 1.6 ×10^–5 cm/s | 2.6 ×10^–5 cm/s | 5.0 ×10^–5 cm/s | 8.0 ×10^–5 cm/s | 9.1 ×10^–5 cm/s | 117 ± 5 nm/s |  |  | 2.7 ×10^–5 cm/s | 16900 mg | 
6 | CNC(=C[N+](=O)[O-])NCCSCc1ccc(CN(C)C)o1 [Ranitidine] | 1.6 ×10^–7 cm/s | 1.8 ×10^–7 cm/s | 3.1 ×10^–7 cm/s | 5.8 ×10^–7 cm/s | 5.5 ×10^–7 cm/s | 14 ± 1 nm/s | 3.2 ×10^–7 cm/s | 4.9 ×10^–7 cm/s |  | 12 ± 1 nm/s | 1.6 ×10^–7 cm/s | 1.8 ×10^–7 cm/s | 3.2 ×10^–7 cm/s | 4.9 ×10^–7 cm/s | 5.4 ×10^–7 cm/s | 15 ± 1 nm/s |  | 55% | 1.8 ×10^–7 cm/s | 24.7 mg | P e [4, 13]: 1.6 ×10^–7 cm/s

Continued, in another order:

Row | P e [2, 7] | P e [2, 8] | P e [2, 9] | P e [2, 10] | P e [2, 11] | Papp at 16 h [2, 12] | P e [4, 15] | P e [4, 16] | P e [4, 17] | Papp at 16 h [4, 18] | P e [5, 19] | P e [5, 20] | P e [5, 21] | P e [5, 22] | P e [5, 23] | Papp at 16 h [5, 24] | Papp at 16 h [4, 13] | SMILES | %FA (human fraction absorbed) [3] | P e [4, 14] | Water solubility [6] | further results
7 | 23.0 ×10^–6 cm/s |  |  |  | 2.6 ×10^–6 cm/s | 145 ± 5 nm/s |  |  |  | 139 ± 5 nm/s |  | 23.0 ×10^–6 cm/s |  | 1.5 ×10^–6 cm/s | 2.6 ×10^–6 cm/s | 167 ± 4 nm/s | 230 nm/s | CC(C)Cc1ccc(C(C)C(=O)O)cc1 (stereo not drawn) [Ibuprofen] |  |  | 21 mg | Papp at 16 h [2, 8]: 220 nm/s; Papp at 16 h [2, 9]: 70 nm/s; Papp at 16 h [2, 10]: 15 nm/s; Papp at 16 h [4, 14]: 235 nm/s; Papp at 16 h [4, 15]: 85 nm/s; Papp at 16 h [4, 16]: 30 nm/s; Papp at 16 h [4, 17]: 26 nm/s; Papp at 16 h [5, 19]: 225 nm/s; Papp at 16 h [5, 21]: 75 nm/s
8 | 1.5 ×10^–7 cm/s | 1.6 ×10^–7 cm/s | 3.2 ×10^–7 cm/s | 5.8 ×10^–7 cm/s | 7.2 ×10^–7 cm/s | 29 ± 3 nm/s | 3.2 ×10^–7 cm/s | 4.9 ×10^–7 cm/s | 7.4 ×10^–7 cm/s | 24 ± 4 nm/s | 1.6 ×10^–7 cm/s | 1.7 ×10^–7 cm/s | 3.1 ×10^–7 cm/s | 4.9 ×10^–7 cm/s | 7.3 ×10^–7 cm/s | 34 ± 2 nm/s |  | CN(C)C(=N)N=C(N)N [Metformin Hydrochloride] |  | 1.6 ×10^–7 cm/s |  | P e [4, 13]: 1.5 ×10^–7 cm/s
9 | 1.9 ×10^–6 cm/s |  |  | 2.5 ×10^–6 cm/s | 2.3 ×10^–6 cm/s | 10 ± 1 nm/s |  | 2.5 ×10^–6 cm/s | 2.2 ×10^–6 cm/s | 9 ± 1 nm/s |  | 2.2 ×10^–6 cm/s | 2.6 ×10^–6 cm/s | 2.6 ×10^–6 cm/s | 2.2 ×10^–6 cm/s |  | 19 nm/s | CCn1cc(C(=O)O)c(=O)c2cc(F)c(N3CCNCC3)cc21 [Norfloxacin] |  |  | 178000 mg | pKa (first value listed) [1]: 6.26; Papp at 16 h [2, 8]: 22 nm/s; Papp at 16 h [2, 9]: 25 nm/s; Papp at 16 h [4, 14]: 23 nm/s; Papp at 16 h [4, 15]: 26 nm/s; P e ([5]; C12 membrane, incubation time 16 h, pH 7.4 donor and acceptor, 25°C): 1.0±0.1 10^−6 cm/s; Papp at 16 h [5, 19]: 18 nm/s
